These results are taken from US12440472B2, “Stable tryptamine oral films” (INTELGENX CORP., priority 2021, dated 2025).

Data set [1] is described as follows: Stability studies comparing phosphoric acid with citric acid and antioxidants/stabilizers (films stored at 50 C). Particulars: compared with film made with only phosphoric acid, 50 C. for two weeks.
For data set [2] the following is noted: administered orally; cited from earlier work.

Turning to vitamin E, the “degradation products / impurity profile of psilocybin film with stabilizer or acid” value (from here on “degradation products / impurity profile”) in data set [1] is listed as “promoting the degradation”.
For the molecule `CN(C)CCc1c[nH]c2cccc(OP(=O)(O)O)c12` [psilocybin], in data set [2], the “drug absorbed into the bloodstream” value is recorded as “about 50%” and the “time of maximum plasma concentration” value is on record as “approximately 80 minutes”.
With `Cc1cc(C(C)(C)C)c(O)c(C(C)(C)C)c1` [BHT], in data set [1], the “degradation products / impurity profile” value is listed as “promoting the degradation”.
On to `[Cl][Cu][Cl]` [copper chloride, Copper (II) chloride], for which the “degradation products / impurity profile” value in data set [1] is reported as “no effect”; in data set [1] (listed as copper), “promoting the degradation”.
